{"source": "ChEMBL document CHEMBL1133369", "about": "“Synthesis and preliminary biological evaluation of [3H]-MRE 3008-F20: the first high affinity radioligand antagonist for the human A3 adenosine receptors” (Bioorg Med Chem Lett, 2000)", "key": {"[1]": {"biological_target": "T1, Adenosine receptor A3 (Homo sapiens) (UniProt P0DMS8)", "T1 sequence (whole entry)": "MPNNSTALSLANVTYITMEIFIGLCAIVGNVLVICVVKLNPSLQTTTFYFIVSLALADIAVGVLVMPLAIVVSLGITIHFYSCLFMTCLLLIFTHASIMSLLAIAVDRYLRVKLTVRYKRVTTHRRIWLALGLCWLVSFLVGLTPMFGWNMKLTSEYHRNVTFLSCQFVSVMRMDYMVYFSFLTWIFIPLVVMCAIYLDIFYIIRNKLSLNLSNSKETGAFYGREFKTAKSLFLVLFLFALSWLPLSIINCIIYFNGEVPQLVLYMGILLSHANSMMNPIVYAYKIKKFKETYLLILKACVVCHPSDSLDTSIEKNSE", "test": "Binding affinity against human AAdenosine A3 receptor in CHO cells", "format": "cell-based"}, "Adenosine receptor A3": {"biological_target": "T2, Adenosine receptor A3 (Homo sapiens, UniProt P0DMS8)", "T2 sequence (P0DMS8 whole entry)": "T1 sequence (whole entry)", "test": "Binding affinity against human Adenosine A3 receptor in CHO cells", "format": "cell-based"}}}
{"smiles": "C=CCn1cc2c(nc(NC(=O)Nc3ccc(OC)cc3)n3nc(-c4ccco4)nc23)n1", "values": [{"measurement": "Bmax", "setting": "[1]", "result": 297, "unit": "fmol/mg"}, {"measurement": "Kd", "setting": "Adenosine receptor A3", "result": 820, "unit": "pM"}]}
